# Data as given in US20050119297A1, “Use of 5HT3 agonists for relaxing the fundus” (priority 1999, published 2005).
# Assays:
# [1] = target: 5-HT3 receptor; conditions: canine intestinal smooth muscle; read-out: affinity for the 5-HT3 receptor IC50; cited from earlier work
# [2] = tested on: gastric tone in conscious dogs; assay: Gastric tone measured by an electronic barostat in conscious dogs; type: in vivo, beagle dogs; conditions: mean maximal change in gastric volume 1 hour after administration, intragastric pressure 6 mmHg
# Method: C.1. Gastric Tone Measured by an Electronic Barostat in Conscious Dogs
# Gastric tone cannot be measured by manometric methods. Therefore an electronic barostat was used. This allows the study of the physiological pattern and regulation of gastric tone in conscious dogs and the influence of test-compounds on this tone.
# The barostat consists of an air injection system which is connected by a double-lumen 14-French polyvinyl tube to an ultrathin flaccid polyethylene bag (maximal volume: ±700 ml). Variations in gastric tone were measured by recording changes in the volume of air within an intragastric bag, maintained at a constant pressure. The barostat maintains a constant pressure (preselected) within a flaccid air-filled bag introduced into the stomach, changing the volume of air within the bag by an electronic feedback system.
# Thus, the barostat measures gastric motor activity (contraction or relaxation) as changes in intragastric volume (decrease or increase resp.) at a constant intragastric pressure. The barostat consists of a strain gauge linked by an electronic relay to an air injection-aspiration system. Both the strain gauge and the injection system are connected by means of double-lumen polyvinyl tube to an ultrathin polyethylene bag. A dial in the barostat allows selection of the pressure level to be maintained within the intragastric bag.
# Female beagle dogs, weighing 7-17 kg, were trained to stand quietly in Pavlov frames. They were implanted with a gastric cannula under general anaesthesia and aseptic precautions. After a median laparotomy, an incision was made through the gastric wall in longitudinal direction between the greater and the lesser curve, 2 cm above the nerves of Latarjet. The cannula was secured to the gastric wall by means of a double purse string suture and brought out via a stub wound at the left quadrant of the hypochondrium. Dogs were allowed a recovery period of two weeks.
# At the beginning of the experiment, the cannula is opened in order to remove any gastric juice or food remnants. If necessary, the stomach is cleansed with 40 to 50 ml lukewarm water. The ultrathin bag of the barostat is positioned into the fundus of the stomach through the gastric cannula. In order to ensure easy unfolding of the intragastric bag during the experiment, a volume of 150-200 ml is injected into the bag by raising the pressure to maximally 14 mm Hg (about 1.87 kPa) very briefly. This procedure is repeated twice.
# After a stabilization period of 60 minutes at an intragastric pressure of 6 mmHg (about 0.81 kPa), the test compound was administered subcutaneously, or intraduodenally. […] Table C-1 summarizes the mean maximal change in volume 1 hour after I.D. or S.C. administration of the compound (R)-N-(1-azabicyclo[2.2.2]oct-3-yl)-4,7-dihydro-7-oxothieno[3,2-b]pyridine-6-carboxamide monohydrochloride at test concentrations of 0.63 mg/kg, 0.16 mg/kg and 0.04 mg/kg.
structure (smiles),measurement,setting,value
"Cl.O=C(N[C@H]1CN2CCC1CC2)c1c[nH]c2ccsc2c1=O [(R)-N-(1-azabicyclo[2.2.2]oct-3-yl)-4,7-dihydro-7-oxothieno[3,2-b]pyridine-6-carboxamide monohydrochloride]",IC50,[1],1.3 nM
same,Maximum change in volume,"[2]; I.D. administration, 0.04 mg/kg",57 mL
same,Maximum change in volume,"[2]; I.D. administration, 0.16 mg/kg",51 mL
same,Maximum change in volume,"[2]; I.D. administration, 0.63 mg/kg",104 mL
same,Maximum change in volume,"[2]; S.C. administration, 0.04 mg/kg",127 mL
same,Maximum change in volume,"[2]; S.C. administration, 0.16 mg/kg",108 mL
same,Maximum change in volume,"[2]; S.C. administration, 0.63 mg/kg",156 mL
